Bounds are passed on as bounds.

In this assay the test system is HCV (Ib) RNA replication. In words: Cell-based luciferase reporter HCV (1b) RNA replication assay (replicon cell lines Huh-7 5.2 and ET). Also on record: species or system Hepatitis C virus. As to conditions: Hepatitis C virus, Huh-7, 96 h, HCV 1b genotype replicon, luciferase readout, 4 days incubation; read-out: EC50_1b. In outline: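 Compounds were tested at eleven concentrations in duplicate over 4 days at 37 °C, 5% CO2. The cells were luciferase-reporter HCV 1b replicon lines 5.2 (NS5A adaptive mutation) or ET (NS4B mutation). Luminescence of lysates was measured, and IC50s were derived by nonlinear curve fitting.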
Turning to `COC(=O)N[C@H](C(=O)N1[C@@H](C)CC[C@H]1c1nc2ccc(-c3ccc(-c4ccc5nc([C@@H]6CC[C@H](C)N6C(=O)[C@@H](NC(=O)OC)C(C)C)[nH]c5c4)c4nsnc34)cc2[nH]1)C(C)C` [Compound 317], the EC50 is ≤ 5 nM. Then `COC(=O)N[C@H](C(=O)N1[C@@H](C)CC[C@H]1c1nc2cc(-c3ccc(-c4ccc5[nH]c([C@@H]6CC[C@H](C)N6C(=O)[C@@H](NC(=O)OC)C(C)C)nc5c4)c4c3OCO4)ccc2[nH]1)C(C)C` [Compound 318], with ≤ 5 nM; and `COC(=O)N[C@H](C(=O)N1[C@@H](C)CC[C@H]1c1nc2cc(-c3csc4c(-c5ccc6[nH]c([C@@H]7CC[C@H](C)N7C(=O)[C@@H](NC(=O)OC)C(C)C)nc6c5)csc34)ccc2[nH]1)C(C)C` [Compound 319], with ≤ 5 nM.

In the case of `COC(=O)N[C@H](C(=O)N1C[C@@H](C)C[C@H]1c1nc2cc(-c3ccc(-c4ccc5[nH]c([C@@H]6CC[C@H](C)N6C(=O)[C@@H](NC(=O)OC)C(C)C)nc5c4)cc3)ccc2[nH]1)C(C)C` [Compound 320], the EC50 is ≤ 5 nM. In the case of `COC(=O)N[C@H](C(=O)N1[C@@H](C)CC[C@H]1c1nc2cc(-c3cc4sc(-c5ccc6[nH]c([C@@H]7CC[C@H](C)N7C(=O)[C@@H](NC(=O)OC)C(C)C)nc6c5)cc4s3)ccc2[nH]1)C(C)C` [Compound 321] it was ≤ 5 nM; in that of `COC(=O)N[C@H](C(=O)N1[C@@H](C)CC[C@H]1c1nc2ccc(-c3ccc(-c4ccc5nc([C@@H]6CC[C@H](C)N6C(=O)[C@@H](NC(=O)OC)C(C)C)[nH]c5c4)c(F)c3)cc2[nH]1)C(C)C` [Compound 322], ≤ 5 nM.

In the case of `COC(=O)N[C@H](C(=O)N1C[C@@H](C)C[C@H]1c1nc2cc(-c3cc4sc(-c5ccc6nc([C@@H]7C[C@H](C)CN7C(=O)[C@@H](NC(=O)OC)C(C)C)n(C)c6c5)cc4s3)ccc2[nH]1)C(C)C` [Compound 323], the EC50 was ≤ 5 nM.

Turning to `COC(=O)N[C@H](C(=O)N1[C@@H](C)CC[C@H]1c1nc2cc(C#CC#Cc3ccc4[nH]c([C@@H]5CC[C@H](C)N5C(=O)[C@@H](NC(=O)OC)C(C)C)nc4c3)ccc2[nH]1)C(C)C` [Compound 324], the EC50 is ≤ 5 nM.

For the compound `COC(=O)N[C@H](C(=O)N1CC(C)(C)C[C@H]1c1nc2cc(-c3cc4sc(-c5ccc6[nH]c([C@@H]7CC(C)(C)CN7C(=O)[C@@H](NC(=O)OC)C(C)C)nc6c5)cc4s3)ccc2[nH]1)C(C)C` [Compound 325], the EC50 was ≤ 5 nM. For `COC(=O)N[C@H](C(=O)N1CCC[C@H]1c1nc2cc(N3CCN(c4ccc5nc([C@@H]6CCCN6C(=O)[C@@H](NC(=O)OC)C(C)C)[nH]c5c4)[C@H](C)C3)ccc2[nH]1)C(C)C` [Compound 326], the EC50 is ≤ 5 nM. In the case of `COC(=O)N[C@H](C(=O)N1C[C@@H](C)C[C@H]1c1nc2cc(-c3ccc(-c4ccc5[nH]c([C@@H]6CC(C)(C)CN6C(=O)[C@@H](NC(=O)OC)C(C)C)nc5c4)cc3)ccc2[nH]1)C(C)C` [Compound 327] it was ≤ 5 nM. For the compound `COC(=O)N[C@H](C(=O)N1CCC[C@H]1c1nc2cc(N3CCCN(c4ccc5nc([C@@H]6CCCN6C(=O)[C@@H](NC(=O)OC)C(C)C)[nH]c5c4)CC3)ccc2[nH]1)C(C)C` [Compound 328], the EC50 is ≤ 5 nM. `COC(=O)N[C@H](C(=O)N1CCC[C@H]1c1nc2cc(N3CCN(c4ccc5[nH]c([C@@H]6CCCN6C(=O)[C@@H](NC(=O)OC)C(C)C)nc5c4)[C@@H](C)C3)ccc2[nH]1)C(C)C` [Compound 329]: the EC50 is ≤ 5 nM. Then `COC(=O)N[C@H](C(=O)N1C[C@@H](C)C[C@H]1c1nc2cc(-c3ccc4cc(-c5ccc6[nH]c([C@@H]7C[C@H](C)CN7C(=O)[C@@H](NC(=O)OC)C(C)C)nc6c5)ccc4c3)ccc2[nH]1)C(C)C` [Compound 330], with ≤ 5 nM; and `COC(=O)N[C@H](C(=O)N1C[C@@H](C)C[C@H]1c1nc2cc(-c3sc4c(C)c(-c5ccc6[nH]c([C@@H]7C[C@H](C)CN7C(=O)[C@@H](NC(=O)OC)C(C)C)nc6c5)sc4c3C)ccc2[nH]1)C(C)C` [Compound 331], with ≤ 5 nM. Then `COC(=O)N[C@H](C(=O)N1C[C@@H](C)C[C@H]1c1nc2cc(-c3cc4cc(-c5ccc6[nH]c([C@@H]7C[C@H](C)CN7C(=O)[C@@H](NC(=O)OC)C(C)C)nc6c5)sc4s3)ccc2[nH]1)C(C)C` [Compound 332], with ≤ 5 nM.
